Literature values as cited in patent US20250120988A1, “SMALL MOLECULE COMPOUND FOR TREATING ISCHEMIC STROKE, ITS PREPARATION METHOD, AND APPLICATION” (SHANGHAI SIXTH PEOPLE'S HOSPITAL, priority 2023, published 2025).

Legend:
NMDARs = settings: competitive antagonist of NMDARs; read-out: half-blocking dose (IC50) on NMDARs; cited from earlier work
[1] = cited from earlier work
ischemic stroke patients = settings: clinical trials; cited from earlier work

SMILES: O=C(O)[C@@H]1C[C@H](CP(=O)(O)O)CCN1 (racemic) [Selfotel]
- IC50 (NMDARs): < 1 µM
- solubility in water [1]: highly soluble in water
- patient mortality compared to the control group (ischemic stroke patients): did not significantly reduce patient mortality
- psychiatric symptoms in patients (ischemic stroke patients): led to various psychiatric symptoms in patients
